Values of other authors, collected in US20100273275A1, “Methods of determining levels of steroid fractions utilizing SHBG calculations” (priority 2005, published 2010).

Assays:
SHBG = target: T1, SHBG (Homo sapiens, UniProt P04278); settings: for KPS (association constant for SHBG-binding to a steroid ligand): constants used for calculations, Dunn et al. (1981), Moll et al. (1981), Rosner (1991)
T1 sequence (P04278 30-402): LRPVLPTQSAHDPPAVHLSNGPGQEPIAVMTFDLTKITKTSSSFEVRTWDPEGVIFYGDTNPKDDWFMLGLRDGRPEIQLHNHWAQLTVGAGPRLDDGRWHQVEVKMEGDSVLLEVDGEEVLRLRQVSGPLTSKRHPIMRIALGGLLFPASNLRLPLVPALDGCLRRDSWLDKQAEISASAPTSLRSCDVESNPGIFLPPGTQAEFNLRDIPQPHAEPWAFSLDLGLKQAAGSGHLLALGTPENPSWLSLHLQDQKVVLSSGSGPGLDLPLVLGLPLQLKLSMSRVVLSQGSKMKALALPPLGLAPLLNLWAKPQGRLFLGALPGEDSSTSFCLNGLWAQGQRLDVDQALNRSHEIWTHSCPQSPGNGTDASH

albumin = albumin (Homo sapiens, UniProt P02768); settings: for KAS (association constant for albumin-binding to a steroid ligand): constants used for calculations, Dunn et al. (1981), Moll et al. (1981), Rosner (1991)
[1] = constant used for free and bioavailable testosterone calculation

Sequence of albumin (P02768 25-609): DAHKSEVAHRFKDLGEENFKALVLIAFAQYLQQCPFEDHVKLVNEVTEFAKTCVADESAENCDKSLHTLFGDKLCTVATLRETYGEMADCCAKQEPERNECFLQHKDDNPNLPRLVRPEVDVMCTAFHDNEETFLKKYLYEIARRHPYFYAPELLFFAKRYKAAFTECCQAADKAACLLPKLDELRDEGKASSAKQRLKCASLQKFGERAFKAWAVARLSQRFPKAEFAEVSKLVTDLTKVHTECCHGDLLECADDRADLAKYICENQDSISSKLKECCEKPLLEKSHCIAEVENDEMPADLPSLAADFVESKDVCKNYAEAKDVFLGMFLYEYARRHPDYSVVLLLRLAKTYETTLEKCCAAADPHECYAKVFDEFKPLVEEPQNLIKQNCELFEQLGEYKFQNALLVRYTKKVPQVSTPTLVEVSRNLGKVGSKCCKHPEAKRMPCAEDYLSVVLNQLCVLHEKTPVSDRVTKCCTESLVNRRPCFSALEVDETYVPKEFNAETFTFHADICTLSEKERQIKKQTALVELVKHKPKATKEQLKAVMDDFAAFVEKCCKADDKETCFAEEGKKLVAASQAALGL

Row | SMILES | KPS (association constant for SHBG-binding to a steroid ligand) (SHBG) | KAS (association constant for albumin-binding to a steroid ligand) (albumin) | KS (association constant, SHBG) (SHBG; [1]) | KA (association constant, albumin) (albumin; [1])
1 | C[C@]12CCC(=O)C=C1CC[C@@H]1[C@@H]2CC[C@]2(C)C(=O)CC[C@@H]12 [Androstenedione] | 0.029 [M^−1] × 10^9 | 20000 [M^−1] |  | 
2 | C[C@]12CC[C@H](O)CC1=CC[C@@H]1[C@@H]2CC[C@]2(C)C(=O)CC[C@@H]12 [Dihydroandrosterone] |  | 180000 [M^−1] |  | 
3 | C[C@]12CC[C@H]3[C@@H](CCC4=CC(=O)CC[C@@]43C)[C@@H]1CC[C@@H]2O [Testosterone] |  | 36000 [M^−1] | 1e+09 L/mol | 36000 L/mol
4 | C[C@]12CCC(=O)C[C@@H]1CC[C@@H]1[C@@H]2CC[C@]2(C)[C@@H](O)CC[C@@H]12 [Dihydrotestosterone] | 2.0 [M^−1] × 10^9 | 79800 [M^−1] |  | 
5 | C[C@]12CC[C@H](O)CC1=CC[C@@H]1[C@@H]2CC[C@]2(C)C(=O)CC[C@@H]12 [Dehydroepiandrosterone] |  | 40000 [M^−1] |  | 
